We go through four molecules from patent publication US7544479B2, “Method for identifying MLK inhibitors for treatment of neurological conditions” (priority 1998, dated 2009).

One data set deals with NMDA receptor. Particulars: rats given glutamate, quinolinic acid or kainic acid; cited from earlier work.
The test system of the next data set is JNK. In words: JNK activity in HN33 cell lysates (GST-c-Jun phosphorylation, Western blot). It counts as cell-based, rat. Particulars: glutamate 250 μM or kainic acid 200 μM, room temperature, 15 minutes. Background: A western blot detects proteins with antibodies after separation by electrophoresis.
In data set [1] the test system is HN33 cells. Particulars: for induction of apoptotic cell death of HN33 cells: glutamate 250 μM or kainic acid 200 μM.
The test system of data set [2] is HN33 cells. In words: TUNEL assay of apoptosis induced by expression of APP-C-100 in HN33 cells. Format: cell-based, rat. Particulars: 48 hours after transfection. An excerpt: To determine the role of activation of the SEK1-JNK signal transduction pathway in Alzheimer's diseases, a cDNA fragment encoding the full-length (Kang, J., et al., Nature, 325:733-736 (1987)) or the last C-terminal 100 amino acid of amyloid precursor protein (APP) was inserted into pcDNA1 and the resulting plasmid was designated as APP-C-100. HN33 cells (60% of confluence) was transfected with pcDNA1 (control), wild-type APP, APP-C-100 by using lipofectin (Boehringer Mannheim) according to manufacture instruction. Thirty μl of lipofectin/50 mm plate was used in all transfection experiments. Twelve to seventy-two hours after transfection, HN33 cells were fixed with 4% paraformaldehyde and permeabilized with 0.1% of Triton X-100. […] TUNEL negative cells were counted under light microscope.
To further determine the role of activation of the JNK activation in Alzheimer's diseases, HN33 cells were transfected with pcDNA1, wild-type APP expression vector, or mutant SEK1 expression vector using lipofectin (Boehringer Mannheim) according to manufacture instruction. […] TUNEL negative cells (living cells) were counted.
To determine further the role of activation of the MLK activation in Alzheimer's diseases, HN33 cells were co-transfected with pcDNA1, wild-type expression vector, with kinase dead MLK2 expression vector. […] TUNEL negative cells (living cells) were counted.

The test system of data set [3] is HN33 cells. Put plainly: TUNEL assay of apoptosis induced by expression of MLK2 in HN33 cells. Particulars: co-transfection with wild-type MLK2; 48 hours after transfection. It counts as cell-based, rat. From the text: To examine whether expression of MLK2 induces neuronal cell death, HN33 cells were transfected with pRK5CMV, wild-type or kinase dead MLK2 expression vector using lipofectin (Boehringer Mannheim) according to manufacture instruction. Forty-eight hours after transfection, cells were fixed and stained with TUNEL, as described above. TUNEL negative cells (living cells) were counted.
To determine whether the role of the SEK1-JNK signal transduction pathway in neuronal cell death induced by expression of MLK2, HN33 cells were co-transfected with pEBG+pRK5CMV (control), wild-type SEK1 expression vector+wild-type MLK2 expression vector, or dominant negative mutant SEK1 (K54R) expression vector+wild-type MLK2 expression vector. Forty-eight hours after transfection, cells were fixed and stained with TUNEL. TUNEL negative cells (living cells) were counted.

For `C[C@]12N[C@H](Cc3ccccc31)c1ccccc12` [MK-801], the “induction of c-Jun expression and neuronal apoptosis” value in the data set on NMDA receptor is “blocked”.

With `N[C@@H](CCC(=O)O)C(=O)O` [glutamate], the JNK activity result with JNK is “induced elevation of the JNK activity”. Moreover, in the data set with HN33 cells [1], the “induction of apoptotic cell death of HN33 cells” value is given as “apoptotic cell death”.

Regarding `C=C(C)[C@H]1CN[C@H](C(=O)O)[C@H]1CC(=O)O` [kainic acid], in the data set with JNK, the JNK activity result is recorded as “induced elevation of the JNK activity”. In addition, in the data set with HN33 cells [1], the “induction of apoptotic cell death of HN33 cells” value is listed as “apoptotic cell death”.

B1: SEK1 (K54R): dominant negative mutant of SEK1, known to specifically block JNK activation; expressed from a vector (protein, UniProt P45985 2-399, looked up, variant K54R)
Dual specificity …: AAPSPSGGGGSGGGSGSGTPGPVGSPAPGHPAVSSMQGKRKALKLNFANPPFRSTARFTLNPNPTGVQNPHIERLRTHSIESSGKLKISPEQHWDFTAEDLKDLGEIGRGAYGSVNKMVHKPSGQIMAVKRIRSTVDEKEQKQLLMDLDVVMRSSDCPYIVQFYGALFREGDCWICMELMSTSFDKFYKYVYSVLDDVIPEEILGKITLATVKALNHLKENLKIIHRDIKPSNILLDRSGNIKLCDFGISGQLVDSIAKTRDAGCRPYMAPERIDPSASRQGYDVRSDVWSLGITLYELATGRFPYPKWNSVFDQLTQVVKGDPPQLSNSEEREFSPSFINFVNLCLTKDESKRPKYKELLKHPFILMYEERAVEVACYVCKILDQMPATPSSPMYVD
modifications: expressed from vector; dominant negative
With B1, in the data set with HN33 cells [2], the “apoptosis induced by expression of APP-C-100, effect of co-expression” value is listed as “blocks”. The “apoptosis induced by MLK expression, effect of co-expression” value with HN33 cells [3] is reported as “attenuated”. Moreover, the “apoptosis induced by glutamate or kainate receptor activation, effect of expression” value in the data set with HN33 cells [1] (250 μM glutamate or 200 μM kainate for six hours, 48 hours after transfection) was “blocks”.
